Laboratory results: patent US20240391954A1, “MC4R AGONIST PEPTIDES” (The Regents of the University of Michigan, priority 2021, published 2024)
Positions of bridges follow the written chain, without caps; N, C: chain ends. Non-standard residues stand in square brackets, D forms with d. Residues, ends and D or L forms follow the SMILES beside them. Nle = CCCC[C@H](N)C(=O)O

Experiments:
human MC4R = molecular target: T1, human MC4R (Homo sapiens, UniProt P32245); assay: split-luciferase cAMP sensor assay, agonist mode (measurement window 1), hMC4R; type: cell-based; details: % maximal activation, agonist mode; read-out: MC4R cAMP % max activation
T1 construct: host or cells: HEK-293 cells stably expressing the GScAMP22F split-luciferase cAMP sensor and hMC4R, G418 selection
Summary of the method: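 EC50 values come from a four-parameter variable-slope fit of luminescence in measurement window 1, capturing direct peptide effects on receptor-expressing cells with a cAMP22f luciferase sensor. Cells were preloaded with 4% D-luciferin, serum-free medium; 20 μM forskolin normalized for cell number and transducer efficiency.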

human MC1R = molecular target: T2, human MC1R (Homo sapiens, UniProt Q01726); assay: split-luciferase cAMP sensor assay, agonist mode, hMC1R; type: cell-based; details: MC4R versus MC1R
T2 construct: expressed in transfected cells; host or cells: HEK-293 cells stably expressing hMC1R and the GScAMP22F cAMP sensor
Summary of the method: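 HEK-293 cells stably expressing hMC1R and the GScAMP22F split-luciferase cAMP sensor, preloaded 120 min at 37° C with D-luciferin in serum-free medium. Peptide responses were taken as peak luminescence over 2-13 min minus 2-min baseline, normalized to the α-MSH ECmax. EC50 was obtained from a four-parameter variable-slope fit.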

T1 sequence (P32245 whole entry): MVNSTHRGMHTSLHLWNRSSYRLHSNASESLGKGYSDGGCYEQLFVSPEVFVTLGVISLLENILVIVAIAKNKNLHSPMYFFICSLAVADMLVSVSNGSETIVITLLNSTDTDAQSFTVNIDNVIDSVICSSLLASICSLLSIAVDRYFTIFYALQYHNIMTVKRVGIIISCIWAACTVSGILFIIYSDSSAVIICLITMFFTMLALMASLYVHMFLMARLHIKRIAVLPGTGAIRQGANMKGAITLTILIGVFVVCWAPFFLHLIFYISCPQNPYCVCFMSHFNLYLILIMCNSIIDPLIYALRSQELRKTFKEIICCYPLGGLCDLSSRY
T2 sequence (Q01726 whole entry): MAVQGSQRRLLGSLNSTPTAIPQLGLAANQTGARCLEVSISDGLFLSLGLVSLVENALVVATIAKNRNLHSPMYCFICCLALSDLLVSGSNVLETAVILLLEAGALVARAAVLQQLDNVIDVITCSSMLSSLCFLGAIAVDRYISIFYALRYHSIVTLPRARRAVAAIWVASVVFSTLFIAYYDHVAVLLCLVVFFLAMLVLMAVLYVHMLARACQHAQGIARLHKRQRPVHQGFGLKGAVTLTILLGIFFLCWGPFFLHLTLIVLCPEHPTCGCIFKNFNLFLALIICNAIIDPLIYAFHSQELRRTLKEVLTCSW

Q: Which Emax (human MC4R) does the source give for `CCCC[C@H](NC(=O)[C@H](CCCNC(=N)N)NC(C)=O)C(=O)N[C@H]1CSSC[C@@H](C(N)=O)NC(=O)[C@H](Cc2c[nH]c3ccccc23)NC(=O)[C@H](CCCNC(=N)N)NC(=O)[C@@H](Cc2ccccc2)NC(=O)[C@H](Cc2c[nH]cn2)NC1=O` [CTX-1227, Arg-Nle-cyclo(Cys-His-D-Phe-Arg-Trp-Cys)] (Ac-R[Nle]CH[dF]RWC-NH2; disulfide 3-8 (inferred)) here?
A: 103%

Q: And the “MC4R selectivity vs MC1R” value (human MC1R)?
A: 0.92
